Laboratory results as given in EP4431111A1, “PROBIOTIC AS VACCINE IMMUNOADJUVANT” (COREE S.r.l., priority 2023, dated 2024).

Tested on: A549 cells
Assay: Cytotoxicity, LDH-release assay on A549 cells
Type: cell-based, human
Conditions: 1% Triton X-100, 10 minutes at room temperature, positive control C+ set at 100%
Protocol: The cytotoxicity of all the conditions tested was evaluated on A549 cells by the LDH activity assay. Cells were seeded in 96 well plate at a density of 3×10^4cells/well: they were leaved at 37°C for 24h and then they were co-cultured with S-protein alone or in the presence of aluminium-based adjuvant or heat-inactivated probiotic strains for 24h. At the end of this incubation period, the release of LDH in the supernatants was evaluated by commercial colorimetric kit following manufacturer's instruction. The control included medium alone used as blank. The spectrophotometric absorbance was measured at 450nm wavelength using a microplate reader.

Triton X-100
release of LDH: maximal release of LDH
